Assay results reported in PubChem BioAssay AID1963979 (Molecular Pharmacology Branch, DTP, NCI, 2024).

System: 361931-004-R-J1-PDC multicell spheroid viability
Assay: Anticancer human tumor 361931-004-R-J1-PDC patient-derived colon adenocarcinoma cell line growth inhibition [PI3K]
Conditions: for viability, T/C: stronger effect = lower value; active means viability on the fitted dose curve at most 10% of control; inactive means the rest
Outline: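 Agents were dosed from a top concentration near clinical Cmax (otherwise 10 microM) in half-log decrements, alone or combined with PI3K inhibitors. The spheroids contain tumor cells plus endothelial (HUVEC) and MSC stroma; viability is measured.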

[1] = curve of first compound, second compound 0.0316 µM
[2] = curve of first compound, second compound 0.1 µM
[3] = curve of first compound, second compound 0.316 µM
[4] = curve of first compound, second compound 1 µM
[5] = curve of first compound, second compound 3.16 µM
[6] = curve of first compound, second compound 10 µM
[7] = second compound 0.0316 µM, first compound 0.0316 µM
[8] = second compound 0.0316 µM, first compound 0.1 µM
[9] = second compound 0.0316 µM, first compound 0.316 µM
[10] = second compound 0.0316 µM, first compound 1 µM
[11] = second compound 0.0316 µM, first compound 3.16 µM
[12] = second compound 0.0316 µM, first compound 10 µM
[13] = second compound 0.1 µM, first compound 0.0316 µM
[14] = second compound 0.1 µM, first compound 0.1 µM
[15] = second compound 0.1 µM, first compound 0.316 µM
[16] = second compound 0.1 µM, first compound 1 µM
[17] = second compound 0.1 µM, first compound 3.16 µM
[18] = second compound 0.1 µM, first compound 10 µM
[19] = second compound 0.316 µM, first compound 0.0316 µM
[20] = second compound 0.316 µM, first compound 0.1 µM
[21] = second compound 0.316 µM, first compound 0.316 µM
[22] = second compound 0.316 µM, first compound 1 µM
[23] = second compound 0.316 µM, first compound 3.16 µM
[24] = second compound 0.316 µM, first compound 10 µM
[25] = second compound 1 µM, first compound 0.0316 µM
[26] = second compound 1 µM, first compound 0.1 µM
[27] = second compound 1 µM, first compound 0.316 µM
[28] = second compound 1 µM, first compound 1 µM
[29] = second compound 1 µM, first compound 3.16 µM
[30] = second compound 1 µM, first compound 10 µM
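Further: spheroids exposed to agents for seven days before readout.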

Cn1cnc2c(F)c(Nc3ccc(Br)cc3Cl)c(C(=O)NOCCO)cc21 + Cc1nc(NC(=O)N2CCCC2C(N)=O)sc1-c1ccnc(C(C)(C)C(F)(F)F)c1
0.741 µM: IC50 [4]
2.12 µM: IC50 [2]
1.17 µM: IC50 [3]
inactive: viability, T/C (second compound 0.0316 µM, first compound 0.00949 µM) 96.2% | viability, T/C (second compound 0.0316 µM, first compound 0.03 µM) 95.8% | viability, T/C (second compound 0.0316 µM, first compound 0.0949 µM) 82.2% | viability, T/C (second compound 0.0316 µM, first compound 0.3 µM) 78.8% | viability, T/C (second compound 0.0316 µM, first compound 0.949 µM) 75.8% | viability, T/C (second compound 0.0316 µM, first compound 3 µM) 48.3% | viability, T/C (second compound 0.1 µM, first compound 0.00949 µM) 107% | viability, T/C (second compound 0.1 µM, first compound 0.03 µM) 106% | viability, T/C (second compound 0.1 µM, first compound 0.0949 µM) 83.7% | viability, T/C (second compound 0.1 µM, first compound 0.3 µM) 84.5% | viability, T/C (second compound 0.1 µM, first compound 0.949 µM) 70.4% | viability, T/C (second compound 0.1 µM, first compound 3 µM) 41% | viability, T/C (second compound 0.316 µM, first compound 0.00949 µM) 103% | viability, T/C (second compound 0.316 µM, first compound 0.03 µM) 89.5% | viability, T/C (second compound 0.316 µM, first compound 0.0949 µM) 79.2% | viability, T/C (second compound 0.316 µM, first compound 0.3 µM) 74% | viability, T/C (second compound 0.316 µM, first compound 0.949 µM) 57.1% | viability, T/C (second compound 0.316 µM, first compound 3 µM) 29.7% | viability, T/C (second compound 1 µM, first compound 0.00949 µM) 95.9% | viability, T/C (second compound 1 µM, first compound 0.03 µM) 92.7% | viability, T/C (second compound 1 µM, first compound 0.0949 µM) 75.6% | viability, T/C (second compound 1 µM, first compound 0.3 µM) 68% | viability, T/C (second compound 1 µM, first compound 0.949 µM) 44.4% | viability, T/C (second compound 1 µM, first compound 3 µM) 27.5% | viability, T/C (second compound 3.16 µM, first compound 0.00949 µM) 82.7% | viability, T/C (second compound 3.16 µM, first compound 0.03 µM) 77.6% | viability, T/C (second compound 3.16 µM, first compound 0.0949 µM) 61.9% | viability, T/C (second compound 3.16 µM, first compound 0.3 µM) 40% | viability, T/C (second compound 3.16 µM, first compound 0.949 µM) 29.3% | viability, T/C (second compound 10 µM, first compound 0.00949 µM) 59% | viability, T/C (second compound 10 µM, first compound 0.03 µM) 48.4% | viability, T/C (second compound 10 µM, first compound 0.0949 µM) 35% | viability, T/C (second compound 10 µM, first compound 0.3 µM) 12.5%
active: viability, T/C (second compound 3.16 µM, first compound 3 µM) 6.45% | viability, T/C (second compound 10 µM, first compound 0.949 µM) 4.2% | viability, T/C (second compound 10 µM, first compound 3 µM) 1.47%
> 3 µM: IC50 [1]
0.0309 µM: IC50 [6]
0.204 µM: IC50 [5]

CCCS(=O)(=O)Nc1ccc(F)c(C(=O)c2c[nH]c3ncc(-c4ccc(Cl)cc4)cc23)c1F + COc1c(OCCCN2CCOCC2)ccc2c3n(c(=NC(=O)c4cnc(N)nc4)nc12)CCN3
4.62 µM: IC50 (curve of first compound, second compound 0.00316 µM)
inactive: viability, T/C (second compound 0.00316 µM, first compound 0.0316 µM) 102% | viability, T/C (second compound 0.00316 µM, first compound 0.1 µM) 104% | viability, T/C (second compound 0.00316 µM, first compound 0.316 µM) 93.7% | viability, T/C (second compound 0.00316 µM, first compound 1 µM) 89.8% | viability, T/C (second compound 0.00316 µM, first compound 3.16 µM) 72.3% | viability, T/C (second compound 0.01 µM, first compound 0.0316 µM) 107% | viability, T/C (second compound 0.01 µM, first compound 0.1 µM) 93.1% | viability, T/C (second compound 0.01 µM, first compound 0.316 µM) 94% | viability, T/C (second compound 0.01 µM, first compound 1 µM) 88.1% | viability, T/C (second compound 0.01 µM, first compound 3.16 µM) 75.6% | viability, T/C [7] 93% | viability, T/C [8] 87.3% | viability, T/C [9] 77.5% | viability, T/C [10] 83.3% | viability, T/C [11] 69.4% | viability, T/C [13] 89.1% | viability, T/C [14] 72.5% | viability, T/C [15] 67.4% | viability, T/C [16] 53% | viability, T/C [17] 47.6% | viability, T/C [19] 54.1% | viability, T/C [20] 45.5% | viability, T/C [21] 28.9% | viability, T/C [22] 27.4% | viability, T/C [23] 17.8% | viability, T/C [25] 20.6% | viability, T/C [26] 21.3% | viability, T/C [27] 14% | viability, T/C [28] 9.73%
< 0.0316 µM: IC50 [4]
4.73 µM: IC50 (curve of first compound, second compound 0.01 µM)
active: viability, T/C (second compound 0.00316 µM, first compound 10 µM) 7.97% | viability, T/C (second compound 0.01 µM, first compound 10 µM) 6.49% | viability, T/C [12] 6.55% | viability, T/C [18] 5.33% | viability, T/C [24] 3.29% | viability, T/C [29] 7.59% | viability, T/C [30] 2.7%
1.57 µM: IC50 [2]
4.48 µM: IC50 [1]
0.0487 µM: IC50 [3]

C=CC(=O)N1CCN(c2nc(=O)n(-c3c(C)ccnc3C(C)C)c3nc(-c4c(O)cccc4F)c(F)cc23)C(C)C1 (stereo not drawn)
inactive: viability, T/C (compound 0.0316 µM) 99.5% [middle of 4 runs] | viability, T/C (compound 0.1 µM) 95.4% [middle of 4 runs] | viability, T/C (compound 0.316 µM) 105% [middle of 4 runs] | viability, T/C (compound 1 µM) 103% [middle of 4 runs] | viability, T/C (compound 3.16 µM) 100% [middle of 4 runs] | viability, T/C (compound 10 µM) 99.2% [middle of 4 runs]
> 10 µM: IC50 (curve of compound)

Cn1nccc1Nc1nccc(-c2ccn(C(CO)c3ccc(Cl)c(F)c3)c(=O)c2)n1 (stereo not drawn) + CC(Nc1ncnc2nc[nH]c12)c1cc2cccc(Cl)c2c(=O)n1-c1ccccc1
9.79 µM: IC50 [5]
5.14 µM: IC50 [6]
> 10 µM: IC50 [1] | IC50 [2] | IC50 [3] | IC50 [4]
inactive: viability, T/C [7] 101% | viability, T/C [8] 98.8% | viability, T/C [9] 100% | viability, T/C [10] 97.7% | viability, T/C [11] 87.9% | viability, T/C [12] 60.2% | viability, T/C [13] 101% | viability, T/C [14] 99.4% | viability, T/C [15] 97% | viability, T/C [16] 93.2% | viability, T/C [17] 86.7% | viability, T/C [18] 65.2% | viability, T/C [19] 107% | viability, T/C [20] 107% | viability, T/C [21] 86.5% | viability, T/C [22] 93.8% | viability, T/C [23] 89.4% | viability, T/C [24] 61.3% | viability, T/C [25] 109% | viability, T/C [26] 99.5% | viability, T/C [27] 99.3% | viability, T/C [28] 90.8% | viability, T/C [29] 92.6% | viability, T/C [30] 56.5% | viability, T/C (second compound 3.16 µM, first compound 0.0316 µM) 107% | viability, T/C (second compound 3.16 µM, first compound 0.1 µM) 105% | viability, T/C (second compound 3.16 µM, first compound 0.316 µM) 100% | viability, T/C (second compound 3.16 µM, first compound 1 µM) 92.2% | viability, T/C (second compound 3.16 µM, first compound 3.16 µM) 87.1% | viability, T/C (second compound 3.16 µM, first compound 10 µM) 48.3% | viability, T/C (second compound 10 µM, first compound 0.0316 µM) 109% | viability, T/C (second compound 10 µM, first compound 0.1 µM) 99.5% | viability, T/C (second compound 10 µM, first compound 0.316 µM) 92.1% | viability, T/C (second compound 10 µM, first compound 1 µM) 83.8% | viability, T/C (second compound 10 µM, first compound 3.16 µM) 64.1% | viability, T/C (second compound 10 µM, first compound 10 µM) 31.4%
